Legend:
[1] = molecular target: TetR (TetR(B), tetracycline repressor) (Escherichia coli, UniProt P04483); test: SPR, TetR immobilised on CMDH chip by EDC/NHS coupling; format: binding
TetR(B) = TetR(B) (Escherichia coli? (TetR(B) cDNA …, UniProt P04483 1-207)); test: EMSA; complex appears from 0.5 uM TetR with 0.5 uM tetO; no Dox; EMSA: 20 mM Tris-HCl pH 8.0, 50 mM NaCl, 1 mM MgCl2, 0.1 mM DTT, 15 min at room temperature; 8% PAGE in 90 mM Tris, 90 mM boric acid, 5 mM MgCl2; details: protein: recombinant; (cloned NdeI-XhoI; Ni-NTA purified); chain copies: 2; label: none (ethidium bromide stain); blunt
Sequence of TetR(B) (Escherichia coli? (P04483 whole entry): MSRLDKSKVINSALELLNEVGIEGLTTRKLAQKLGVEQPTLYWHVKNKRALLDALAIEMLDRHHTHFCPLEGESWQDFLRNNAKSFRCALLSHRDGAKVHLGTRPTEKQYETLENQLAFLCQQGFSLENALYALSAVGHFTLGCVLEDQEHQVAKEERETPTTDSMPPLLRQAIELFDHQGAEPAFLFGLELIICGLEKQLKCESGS

Sequence of TetR (TetR(B), tetracycline repressor) (P04483 whole entry, looked up): as the sequence (P04483 whole entry) above

**Q.** For C=CCc1cccc(C=NNC(=O)CN2CCN(Cc3ccccc3)CC2)c1O [PAC-1], which Kd [1] is on record?
**A.** The Kd was 260 µM.

B1: tetO (dsDNA)
DNA 1: CCTAATTTTTGTTGACACTCTATCATTGATAGAGTTATTTTACCACTC
DNA 2: GAGTGGTAAAATAACTCTATCAATGATAGAGTGTCAACAAAAATTAGG
**Q.** Does B1 bind (TetR(B))?
**A.** Result: binds

From article PMC6328932, “Procaspase activating compound 1 controls tetracycline repressor-regulated gene expression system” (Bioscience Reports, 2019)
